Values quoted from earlier work, collected in patent US20260183398A1, “RADIOLUMINESCENT NANOPARTICLES FOR RADIATION-TRIGGERED CONTROLLED RELEASE DRUGS” (Purdue Research Foundation, priority 2017, published 2026).

Assays:
[1] = PTX intratumorally delivered to mouse xenografts in the polymer encapsulated form
[2] = reported
[3] = systemic chemotherapy, about 200 mg/m2

tumor elimination rate constant ket [1]: 0,005 h^−1
in vitro IC90 [2]: ≈ 0.09 μg PTX per mg tumor
Compound: CC(=O)O[C@H]1C(=O)[C@@]2(C)[C@H]([C@H](OC(=O)c3ccccc3)[C@]3(O)C[C@H](OC(=O)[C@H](O)[C@@H](NC(=O)c4ccccc4)c4ccccc4)C(C)=C1C3(C)C)[C@]1(OC(C)=O)CO[C@@H]1C[C@@H]2O [PTX, paclitaxel]
in vitro IC90 (PTX concentration giving rise to 90% cell kill in vitro) [2]: about 90 μg/mL
patients with dermatological side effects (skin, hair, nail) [3]: 86.8%
